≈ marks a conversion by molar mass, not a printed value. Like-named read-outs stand apart in the source and are kept apart here.
Legend:
[1] = Physicians' Desk Reference; cited from earlier work
[2] = Aqueous solubility of topiramate; format: physicochemical; settings: 37 °C, thermodynamic from solid
Method: Aqueous solubility is determined by adding the therapeutic agent to stirred or agitated water maintained in a constant temperature bath at a temperature of 37 degrees centigrade until no more agent dissolves. The resulting solution saturated with active agent is then filtered, typically under pressure through a 0.8-micron Millipore filter, and the concentration in solution is measured by any appropriate analytical method including gravimetric, ultraviolet spectrophometry, chromatography, and the like.

solubility ([2]; de-ionized water, read-out: Solubility of neat topiramate measured in de-ionized water): 12 mg/mL (≈ 35.4 mM)
solubility ([2]; water, read-out: solubility): 9.8 to 13 mg/mL (≈ 28.9 to 38.3 mM)
SMILES: CC1(C)O[C@@H]2[C@@H](CO[C@@]3(COS(N)(=O)=O)OC(C)(C)O[C@@H]23)O1 [Topiramate, topiramate]
solubility in water [1]: about 9.8 mg/ml

Reference: patent US20050058707A1, “Uniform delivery of topiramate over prolonged period of time with enhanced dispersion formulation” (priority 2003, published 2005)
